Test results from patent EP4707280A1, “1,4-CINEOLE DERIVATIVE AND INTERMEDIATE THEREOF, HERBICIDE CONTAINING SAID DERIVATIVE AS ACTIVE INGREDIENT, METHOD FOR USING HERBICIDE, AND METHOD FOR PREPARING AGROCHEMICAL COMPOSITION” (HOKKO CHEMICAL INDUSTRY CO., LTD., priority 2023, dated 2024).

Assays:
Type in all cases: in vivo
Scirpus juncoides [1] = assay: Test Example 1: herbicidal effect test by soil application in paddy rice; conditions: Schoenoplectiella juncoides, soil, 336 h; 120 g active ingredient per 10 ares; applied immediately after sowing, flooded pots; 14 days after application; read-out: weed inhibition rate
In short: (§1)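 Treatment: 120 g active ingredient per 10 ares as a water-diluted emulsifiable concentrate, dropped onto flooded pots immediately after sowing. Thirty seeds per species went 0–1 cm into puddled paddy soil with 16:16:16 fertilizer, with ~3 cm flooding maintained in a glass greenhouse.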

Scirpus juncoides [2] = assay: Test Example 2: herbicidal effect test by application during growth period of paddy rice; conditions: Schoenoplectiella juncoides; 120 g per 10 ares; applied seven days after sowing, flooded pots; 14 days after application; read-out: weed inhibition rate
In short: (§2)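 Paddy soil in Wagner pots was puddled with N:P:K 16:16:16 fertilizer, sown with 30 weed seeds per species at 0–1 cm and flooded to about 3 cm. Seven days after sowing, a water-diluted emulsifiable concentrate was dropped onto the water at 120 g active ingredient per 10 ares. Weed inhibition (%) was scored at 14 days, in duplicate.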

[3] = test system: Echinochloa crus-galli var. formosensis; assay: Test Example 1: herbicidal effect test by soil application in paddy rice; conditions: 120 g active ingredient per 10 ares, applied immediately after sowing, flooded pots, 14 days after application; for pest or weed control at 1200 g/ha: Echinochloa crus-galli, soil, 336 h, read-out: weed inhibition rate
In short: as §1

[4] = test system: Echinochloa crus-galli var. formosensis; assay: Test Example 5: herbicidal effect test by soil application in paddy rice (low dose); conditions: 7.5 g per 10 ares, applied immediately after sowing, flooded pots, 14 days after application; for inhibition at 75 g/ha: Echinochloa crus-galli, soil, 336 h, read-out: weed inhibition rate
Procedure: (§3) The present test was conducted in duplicate for each chemical concentration group, and the weed inhibition rate (%) was determined 14 days after chemical application using the following formula (Math. 1). [formula]
Wagner pots with an area of […] were filled with paddy soil, followed by addition of water and incorporation of chemical fertilizer (N:P:K = 16:16:16), after which puddling was performed. After that, seeds of Echinochloa crus-galli var. formosensis, broad-leaved weeds (Monochoria vaginalis), and Scirpus juncoides were sown at a depth of 0 cm to 1 cm, 30 seeds each. Immediately after sowing, the pots were flooded and a water depth of approximately 3 cm was maintained. Subsequent management was conducted in a glass greenhouse. Immediately thereafter, an emulsifiable concentrate prepared according to Formulation Example 5 using the compound shown below was diluted with water, and a specified amount of the diluted solution was applied by dropper. The amount of the active ingredient to be applied was equivalent to 7.5 g per 10 ares. […]

[5] = test system: Echinochloa crus-galli var. formosensis; assay: Test Example 6: herbicidal effect test by application during growth period of paddy rice (low dose); conditions: 7.5 g per 10 ares, applied seven days after sowing, flooded pots, 14 days after application; for inhibition at 75 g/ha: Echinochloa crus-galli, read-out: weed inhibition rate
Procedure: as §3
Wagner pots with an area of […] were filled with paddy soil, followed by addition of water and incorporation of chemical fertilizer (N:P:K = 16:16:16), after which puddling was performed. After that, seeds of Echinochloa crus-galli var. formosensis, broad-leaved weeds (Monochoria vaginalis), and Scirpus juncoides were sown at a depth of 0 cm to 1 cm, 30 seeds each. Immediately after sowing, the pots were flooded and a water depth of approximately 3 cm was maintained. Subsequent management was conducted in a glass greenhouse. Seven days after sowing, an emulsifiable concentrate prepared according to Formulation Example 5 using the compound shown below was diluted with water, and a specified amount of the diluted solution was applied by dropper. The amount of the active ingredient to be applied was equivalent to 7.5 g per 10 ares. The test was conducted in duplicate for each chemical concentration group, and the herbicidal effect was evaluated 14 days after chemical application using the same criteria as in Test Example 1.

[6] = test system: Echinochloa crus-galli var. formosensis; assay: Test Example 2: herbicidal effect test by application during growth period of paddy rice; conditions: 120 g per 10 ares, applied seven days after sowing, flooded pots, 14 days after application; for inhibition at 1200 g/ha: Echinochloa crus-galli, read-out: weed inhibition rate
In short: as §2

Digitaria ciliaris [7] = assay: Test Example 4: herbicidal effect test by stem and leaf treatment in upland field; conditions: Digitaria ciliaris; 120 g per 10 ares; sprayed seven days after sowing, upland soil; 14 days after application; read-out: weed inhibition rate
Digitaria ciliaris [8] = assay: Test Example 3: herbicidal effect test by soil application in upland field; conditions: Digitaria ciliaris, 120 g per 10 ares, sprayed one day after sowing, 14 days after application, read-out: weed inhibition rate
In short: (§4)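 Weed inhibition (%) was assessed 14 days after treatment, in duplicate per concentration group. Seeds had been mixed into the upper 1 cm of upland alluvial loam, and the soil surface was sprayed one day later with the diluted emulsifiable concentrate at 120 g active ingredient per 10 ares.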

Echinochloa crus-galli [9] = assay: as above; conditions: Echinochloa crus-galli, 120 g per 10 ares, sprayed one day after sowing, 14 days after application, read-out: weed inhibition rate
In short: as §4

Echinochloa crus-galli [10] = assay: Test Example 4: herbicidal effect test by stem and leaf treatment in upland field; conditions: Echinochloa crus-galli; 120 g per 10 ares; sprayed seven days after sowing, upland soil; 14 days after application; read-out: weed inhibition rate

COC(=O)c1ccccc1CO[C@H]1C[C@@]2(C(C)C)O[C@]1(C)C[C@H]2I [1-1115, methyl 2-[[(1R,2S,4S,5R)-5-iodo-1-methyl-4-isopropyl-7-oxabicyclo[2.2.1]heptan-2-yl]oxymethyl]benzoate]
≥ 80%: pest or weed control at 1200 g/ha (Scirpus juncoides [1]) | inhibition at 1200 g/ha (Scirpus juncoides [2])

COC(=O)c1ccccc1COC1CC2(C(C)C)OC1(C)CC2I (stereo not drawn) [1-1442, methyl 2-[(5-iodo-4-isopropyl-1-methyl-7-oxabicyclo[2.2.1]heptan-2-yl)oxymethyl]benzoate]
≥ 80%: pest or weed control at 1200 g/ha (Scirpus juncoides [1]) | inhibition at 1200 g/ha (Scirpus juncoides [2])

CC(=O)O[C@@H]1C[C@]2(C)O[C@@]1(C(C)C)C[C@H]2OCc1ccccc1F [1-932, [(1R,2R,4S,5R)-5-[(2-fluorophenyl)methoxy]-4-methyl-1-isopropyl-7-oxabicyclo[2.2.1]heptan-2-yl]acetate]
≥ 80%: weed inhibition rate [3] | weed inhibition rate [4] | weed inhibition rate [5] | weed inhibition rate [6]

CC(C)[C@]12C[C@@H](OCC3CCCCC3)[C@](C)(C[C@@H]1Br)O2 [1-676, (1S,2R,4R,5S)-5-bromo-2-(cyclohexylmethoxy)-1-methyl-4-isopropyl-7-oxabicyclo[2.2.1]heptane]
≥ 80%: inhibition at 1200 g/ha (Digitaria ciliaris [7]) | inhibition at 1200 g/ha (Digitaria ciliaris [8]) | inhibition at 1200 g/ha (Echinochloa crus-galli [9]) | pest or weed control at 1200 g/ha [3] | pest or weed control at 1200 g/ha (Scirpus juncoides [1]) | inhibition at 75 g/ha [4] | inhibition at 75 g/ha [5] | inhibition at 1200 g/ha (Echinochloa crus-galli [10]) | inhibition at 1200 g/ha [6]

COC(=O)c1ccccc1COC1CC2(C(C)C)OC1(C)CC2Cl (stereo not drawn) [1-1310, methyl 2-[(5-chloro-4-isopropyl-1-methyl-7-oxabicyclo[2.2.1]heptan-2-yl)oxymethyl]benzoate]
≥ 80%: pest or weed control at 1200 g/ha (Scirpus juncoides [1]) | inhibition at 1200 g/ha (Scirpus juncoides [2])

CCCCCCO[C@@H]1C[C@]2(C(C)C)O[C@@]1(C)C[C@@H]2Br [1-669, (1S,2R,4R,5S)-5-bromo-2-hexoxy-1-methyl-4-isopropyl-7-oxabicyclo[2.2.1]heptane]
≥ 80%: inhibition at 1200 g/ha (Digitaria ciliaris [7]) | inhibition at 1200 g/ha (Digitaria ciliaris [8]) | inhibition at 1200 g/ha (Echinochloa crus-galli [9]) | pest or weed control at 1200 g/ha [3] | inhibition at 1200 g/ha (Echinochloa crus-galli [10]) | inhibition at 1200 g/ha [6] | inhibition at 1200 g/ha (Scirpus juncoides [2])

Cc1ccccc1CO[C@@H]1C[C@]2(C(C)C)O[C@@]1(C)CC2c1ccccc1 (stereo partly drawn) [1-313, (1S,2R,4R)-4-isopropyl-1-methyl-2-((2-methylbenzyl)oxy)-5-phenyl-7-oxabicyclo[2.2.1]heptane]
≥ 80%: inhibition at 1200 g/ha (Echinochloa crus-galli [9]) | pest or weed control at 1200 g/ha [3] | inhibition at 75 g/ha [4] | inhibition at 75 g/ha [5] | inhibition at 1200 g/ha (Echinochloa crus-galli [10]) | inhibition at 1200 g/ha [6]

COc1ccccc1CO[C@@H]1C[C@]2(C(C)C)O[C@@]1(C)CC2=O [2-7, (1R,4S,5R)-1-isopropyl-5-((2-methoxybenzyl)oxy)-4-methyl-7-oxabicyclo[2.2.1]heptan-2-one]
≥ 80%: inhibition at 1200 g/ha (Digitaria ciliaris [7]) | pest or weed control at 1200 g/ha [3] | inhibition at 75 g/ha [4] | inhibition at 1200 g/ha (Echinochloa crus-galli [10]) | inhibition at 1200 g/ha [6]

CC(C)[C@]12C[C@@H](OCc3cccc4ccccc34)[C@](C)(C[C@@H]1Br)O2 [1-715, (1S,2R,4R,5S)-5-bromo-1-methyl-2-(naphthalen-1-ylmethoxy)-4-isopropyl-7-oxabicyclo[2.2.1]heptane]
≥ 80%: pest or weed control at 1200 g/ha [3] | inhibition at 75 g/ha [4] | inhibition at 75 g/ha [5] | inhibition at 1200 g/ha [6]

CC(C)[C@@]12C[C@H](OCc3ccccc3)[C@@](C)(C[C@H]1Br)O2 [1-1015, (1R,2S,4S,5R)-5-bromo-1-methyl-2-phenylmethoxy-4-isopropyl-7-oxabicyclo[2.2.1]heptane]
≥ 80%: inhibition at 1200 g/ha (Digitaria ciliaris [7]) | inhibition at 1200 g/ha (Digitaria ciliaris [8]) | inhibition at 1200 g/ha (Echinochloa crus-galli [9]) | pest or weed control at 1200 g/ha [3] | inhibition at 1200 g/ha (Echinochloa crus-galli [10]) | inhibition at 1200 g/ha [6]

CC(C)C12CC(OCc3ccccc3C#N)C(C)(CC1Br)O2 (stereo not drawn) [1-1370, 2-[(5-bromo-1-methyl-4-isopropyl-7-oxabicyclo[2.2.1]heptan-2-yl)oxymethyl]benzonitrile]
≥ 80%: inhibition at 1200 g/ha (Digitaria ciliaris [7]) | inhibition at 1200 g/ha (Digitaria ciliaris [8]) | inhibition at 1200 g/ha (Echinochloa crus-galli [9]) | pest or weed control at 1200 g/ha [3] | inhibition at 1200 g/ha (Echinochloa crus-galli [10]) | inhibition at 1200 g/ha [6]

CC(C)[C@]12C[C@@H](OCc3ccccc3F)[C@](C)(CC1c1ccsc1)O2 (stereo partly drawn) [1-928, (1S,2R,4R)-2-((2-fluorobenzyl)oxy)-4-isopropyl-1-methyl-5-(thiophen-3-yl)-7-oxabicyclo[2.2.1]heptane]
≥ 80%: inhibition at 1200 g/ha (Digitaria ciliaris [7]) | pest or weed control at 1200 g/ha [3] | inhibition at 75 g/ha [4] | inhibition at 75 g/ha [5] | inhibition at 1200 g/ha (Echinochloa crus-galli [10]) | inhibition at 1200 g/ha [6]

COc1ccccc1CO[C@H]1C[C@@]2(C(C)C)O[C@]1(C)C[C@H]2Br [1-1022, (1R,2S,4S,5R)-5-bromo-2-[(2-methoxyphenyl)methoxy]-1-methyl-4-isopropyl-7-oxabicyclo[2.2.1]heptane]
≥ 80%: inhibition at 1200 g/ha (Digitaria ciliaris [7]) | inhibition at 1200 g/ha (Digitaria ciliaris [8]) | inhibition at 1200 g/ha (Echinochloa crus-galli [9]) | pest or weed control at 1200 g/ha [3] | inhibition at 1200 g/ha (Echinochloa crus-galli [10]) | inhibition at 1200 g/ha [6]

CC(C)C12CC(OCc3ccc(Br)cc3)C(C)(CC1Br)O2 (stereo not drawn) [1-1363, 5-bromo-2-[(4-bromophenyl)methoxy]-1-methyl-4-isopropyl-7-oxabicyclo[2.2.1]heptane]
≥ 80%: inhibition at 1200 g/ha (Digitaria ciliaris [7]) | inhibition at 1200 g/ha (Digitaria ciliaris [8]) | inhibition at 1200 g/ha (Echinochloa crus-galli [9]) | pest or weed control at 1200 g/ha [3] | inhibition at 1200 g/ha (Echinochloa crus-galli [10]) | inhibition at 1200 g/ha [6]

Cc1noc(C)c1CO[C@@H]1C[C@]2(C(C)C)O[C@@]1(C)C[C@@H]2Br [1-723, 4-[[(1S,2R,4R,5S)-5-bromo-1-methyl-4-isopropyl-7-oxabicyclo[2.2.1]heptan-2-yl]oxymethyl]-3,5-dimethyl-1,2-oxazole]
≥ 80%: pest or weed control at 1200 g/ha [3] | inhibition at 75 g/ha [4] | inhibition at 75 g/ha [5] | inhibition at 1200 g/ha [6]

CC(C)[C@@]12C[C@H](OCc3ccccc3F)[C@@](C)(C[C@H]1I)O2 [1-1094, (1R,2S,4S,5R)-2-[(2-fluorophenyl)methoxy]-5-iodo-1-methyl-4-isopropyl-7-oxabicyclo[2.2.1]heptane]
≥ 80%: inhibition at 1200 g/ha (Digitaria ciliaris [7]) | inhibition at 1200 g/ha (Digitaria ciliaris [8]) | inhibition at 1200 g/ha (Echinochloa crus-galli [9]) | pest or weed control at 1200 g/ha [3] | inhibition at 1200 g/ha (Echinochloa crus-galli [10]) | inhibition at 1200 g/ha [6]

CC(C)[C@@]12C[C@H](OCc3ccccc3)[C@@](C)(CC1I)O2 (mixture of isomers) [1-1081, (1R,2S,4S,SR)-5-iodo-1-methyl-2-phenylmethoxy-4-isopropyl-7-oxabicyclo[2.2.1]heptane]
≥ 80%: inhibition at 1200 g/ha (Digitaria ciliaris [7]) | inhibition at 1200 g/ha (Digitaria ciliaris [8]) | inhibition at 1200 g/ha (Echinochloa crus-galli [9]) | pest or weed control at 1200 g/ha [3] | inhibition at 1200 g/ha (Echinochloa crus-galli [10]) | inhibition at 1200 g/ha [6]
